The values that follow come from patent US9580390B2, “Indazole compounds as kinase inhibitors and method of treating cancer with same” (University Health Network, priority 2011, dated 2017).

Each structure is given as a SMILES string. Where only a bound is given, the exact number is not on record here.

The target in one assay is T1, human PLK4 (Homo sapiens, UniProt O00444).
T1 construct: amino terminal GST fusion of residues 1-391 of human PLK4; made in house; host or cells: E. coli
T1 sequence (O00444 1-391): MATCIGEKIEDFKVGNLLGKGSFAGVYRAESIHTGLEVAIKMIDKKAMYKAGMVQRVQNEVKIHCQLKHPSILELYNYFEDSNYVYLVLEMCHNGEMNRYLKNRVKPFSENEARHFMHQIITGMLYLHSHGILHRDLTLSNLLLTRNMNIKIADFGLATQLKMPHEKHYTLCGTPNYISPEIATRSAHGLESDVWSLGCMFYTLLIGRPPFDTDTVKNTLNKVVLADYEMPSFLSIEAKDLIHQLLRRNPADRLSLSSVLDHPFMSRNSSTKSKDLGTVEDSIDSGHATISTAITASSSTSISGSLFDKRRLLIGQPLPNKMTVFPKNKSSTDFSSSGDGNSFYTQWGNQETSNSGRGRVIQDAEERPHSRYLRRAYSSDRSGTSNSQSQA
The assay is described as follows: PLK4 inhibition assay (indirect ELISA). The conditions noted are these: 15 μM ATP. Format: biochemical. How it is done:
Active PLK4 was purified from an E. coli expression system as an amino terminal GST fusion of residues 1-391 of human PLK4. The protein was purified from clarified cell extracts after induction at 15° C. overnight using glutathione sepharose, gel permeation chromatography, and ion exchange (Resource Q). The resulting protein was dephosphorylated with lambda phosphatase (NEB cat# P0753), and resolved from the phosphatase using gluthione sepharose. The dephosphorylated GST-PLK4 was stored in aliquots at −80° C. until use.
PLK4 activity was measured using an indirect ELISA detection system. Dephosphorylated GST-PLK4 (4 nM) was incubated in the presence of 15 μM ATP (Sigma cat# A7699), 50 mM HEPES-[…] pH 7.4, 10 mM MgCl2, 0.01% Brij 35 (Sigma cat# 03-3170), in a 96 well microtitre plate pre-coated with MBP (Millipore cat#30-011). The reaction was allowed to proceed for 30 minutes, followed by 5 washes of the plate with Wash Buffer (50 mM TRIS-Cl pH 7.4 and 0.2% Tween 20), and incubation for 30 minutes with a 1:3000 dilution of primary antibody (Cell Signaling cat# 9381). The plate was washed 5 times with Wash Buffer, incubated for 30 minutes in the presence of secondary antibody coupled to horse radish peroxidase (BioRad cat# 1721019, 1:3000 concentration), washed an additional 5 times with Wash Buffer, and incubated in the presence of TMB substrate (Sigma cat# T0440). The colourimetric reaction was allowed to continue for 5 minutes, followed by addition of stop solution (0.5 N sulphuric acid), and quantified by detection at 450 nm with either a monochromatic or filter based plate reader (Molecular Devices M5 or Beckman DTX880, respectively).
Compound inhibition was determined at either a fixed concentration (10 μM) or at a variable inhibitor concentration (typically 50 μM to 0.1 μM in a 10 point dose response titration). Compounds were pre-incubated in the presence of enzyme for 15 minutes prior to addition of ATP and the activity remaining quantified using the above described activity assay. The % Inhibition of a compound was determined using the following formula: % Inhibition=100×(1−(experimental value−background value)/(high activity control−background value)). The IC50 value was determined using a non-linear 4 point logistic curve fit (XLfit4, IDBS) with the formula: (A+(B/(1+((x/C)^D)))), where A=background value, B=range, C=inflection point, D=curve fit parameter.

Assay [1] has as its system colon cancer cells (HCT116). The assay is described as follows: Cancer cell line growth inhibition (SRB assay). Format: cell-based. The conditions noted are these: Homo sapiens, HCT-116; HCT116 colon cancer cells, SRB assay; read-out: Cancer Cell Line GI50 Range HCT116. Background: Sulforhodamine B stains cellular protein and so reports cell mass.
The test system of assay [2] is ovarian cancer cells (PA-1). The assay can be described thus: Cancer cell line growth inhibition (SRB assay). It counts as cell-based. To be noted: PA-1 ovarian cancer cells, SRB assay; read-out: Cancer Cell Line GI50 Range PA-1.

By IC50 is commonly meant the concentration at which inhibition is half-maximal. The term GI50 denotes the concentration at which growth is held to half of that of the control. Consider `O=C(Nc1ccc2[nH]nc(-c3ccc(OCCCN4CCOCC4)cc3)c2c1)C(c1ccsc1)N1CCCC1` (stereo not shown) [Example A45, N-(3-(4-(3-morpholinopropoxy)phenyl)-1H-indazol-5-yl)-2-(pyrrolidin-1-yl)-2-(thiophen-3-yl)acetamide], for which, at human PLK4, the IC50 is less than 50 nM. Moreover, the concentration for 50% growth inhibition (GI50) in assay [1] is less than 100 nM.

For the compound `CN1CCC(Oc2ccc(-c3n[nH]c4ccc(NC(=O)C(c5ccsc5)N5CCCC5)cc34)cc2Cl)CC1` (stereo not shown) [Example A57], the IC50 at human PLK4 is less than 50 nM. The concentration for 50% growth inhibition (GI50) in assay [1] fell in the range of 100 to 500 nM.

Regarding `CN1CCC(Oc2ccc(-c3n[nH]c4ccc(NC(=O)C(c5ccccn5)C5CCCC5)cc34)cc2)CC1` (stereo not shown) [Example A179, 2-cyclopentyl-N-(3-(4-((1-methylpiperidin-4-yl)oxy)phenyl)-1H-indazol-5-yl)-2-(pyridin-2-yl)acetamide], at human PLK4, the concentration for half-maximal inhibition (IC50) is less than 50 nM.

For the compound `CN1CCC(Oc2ccc(-c3n[nH]c4ccc(NC(=O)C(c5ccccc5F)C5CCCC5)cc34)cc2)CC1` (stereo not shown) [Example A162, 2-cyclopentyl-2-(2-fluorophenyl)-N-(3-(4-((1-methylpiperidin-4-yl)oxy)phenyl)-1H-indazol-5-yl)acetamide], on human PLK4, the IC50 is less than 50 nM. For the same compound, the concentration for 50% growth inhibition (GI50) in assay [2] and in assay [1] was 100 to 500 nM in each case.

As for `CN1CCC(C(NC(=O)c2ccc3[nH]nc(-c4ccc(N5CCOCC5)cc4)c3c2)c2ccccc2)CC1` (stereo not shown) [Example A85, N-((1-methylpiperidin-4-yl)(phenyl)methyl)-3-(4-morpholinophenyl)-1H-indazole-5-carboxamide], the IC50 at human PLK4 is less than 50 nM. Further, the concentration for 50% growth inhibition (GI50) in assay [2] and in assay [1] was less than 100 nM throughout.

Regarding `O=C(Nc1ccc2[nH]nc(-c3ccc4c(c3)OCCO4)c2c1)C(c1ccsc1)N1CCCC1` (stereo not shown) [Example A15, N-(3-(2,3-dihydrobenzo[b][1,4]dioxin-6-yl)-1H-indazol-5-yl)-2-(pyrrolidin-1-yl)-2-(thiophen-3-yl)acetamide], the IC50 on human PLK4 is less than 50 nM. The GI50 in assay [1] was more than 500 nM.

With `C[C@@H]1CN(c2ccc(-c3n[nH]c4ccc(NC(=O)C(c5ccsc5)N5CCCC5)cc34)cc2)C[C@H](C)O1` (stereo partly drawn) [Example A50, N-(3-(4-((2S,6R)-2,6-dimethylmorpholino)phenyl)-1H-indazol-5-yl)-2-(pyrrolidin-1-yl)-2-(thiophen-3-yl)acetamide], the IC50 on human PLK4 was less than 50 nM. In addition, the GI50 in assay [1] is less than 100 nM.

As for `O=C(Nc1ccc2[nH]nc(-c3ccc(OC4CCNCC4)c(Cl)c3)c2c1)C(c1ccsc1)N1CCCC1` (stereo not shown) [Example A34, N-(3-(3-chloro-4-(piperidin-4-yloxy)phenyl)-1H-indazol-5-yl)-2-(pyrrolidin-1-yl)-2-(thiophen-3-yl)acetamide], the half-inhibitory concentration (IC50) at human PLK4 is less than 50 nM. Further, the GI50 in assay [1] was less than 100 nM.

In the case of `C[C@@H]1CCCN1[C@@H](C(=O)Nc1ccc2[nH]nc(-c3ccc(N4CCOCC4)cc3)c2c1)c1ccsc1` [Example A97, (R)-2-((R)-2-methylpyrrolidin-1-yl)-N-(3-(4-morpholinophenyl)-1H-indazol-5-yl)-2-(thiophen-3-yl)acetamide], the half-maximal inhibitory concentration (IC50) at human PLK4 is less than 50 nM. Moreover, the GI50 in assay [2] and in assay [1] was 100 to 500 nM each time.

For the compound `CN1CCC(Oc2ccc(-c3n[nH]c4ccc(NC(=O)C(c5ccccc5)C5CCCC5)cc34)cc2)CC1` (stereo not shown) [Example A148, 2-cyclopentyl-N-(3-(4-((1-methylpiperidin-4-yl)oxy)phenyl)-1H-indazol-5-yl)-2-phenylacetamide], the 50% inhibitory concentration (IC50) on human PLK4 is less than 50 nM. Moreover, the GI50 in assay [2] and in assay [1] was 100 to 500 nM each time.

As for `O=C(Nc1ccc2[nH]nc(-c3ccc4c(c3)OCO4)c2c1)C(c1ccsc1)N1CCCC1` (stereo not shown) [Example A14, N-(3-(benzo[d][1,3]dioxol-5-yl)-1H-indazol-5-yl)-2-(pyrrolidin-1-yl)-2-(thiophen-3-yl)acetamide], at human PLK4, the half-maximal inhibitory concentration (IC50) is less than 50 nM. In addition, the GI50 in assay [1] was more than 500 nM.

Turning to `COCCN1CCC(Oc2ccc(-c3n[nH]c4ccc(C(=O)NC(c5ccsc5)C5CCCC5)cc34)cc2)CC1` (stereo not shown) [Example A155, N-(cyclopentyl(thiophen-3-yl)methyl)-3-(4-((1-(2-methoxyethyl)piperidin-4-yl)oxy)phenyl)-1H-indazole-5-carboxamide], the IC50 at human PLK4 was less than 50 nM. In addition, the GI50 in assay [2] and in assay [1] was 100 to 500 nM each time.

For the compound `Cc1ccccc1CC(=O)Nc1ccc2[nH]nc(-c3ccc(OC4CCN(C)CC4)cc3)c2c1` [Example A92, N-(3-(4-(1-Methylpiperidin-4-yloxy)phenyl)-1H-indazol-5-yl)-2-o-tolylacetamide], the IC50 at human PLK4 is less than 50 nM. Further, the GI50 in assay [2] is 100 to 500 nM; in assay [1], less than 100 nM.

`CN1CCC(Oc2ccc(-c3n[nH]c4ccc(NC(=O)C(c5ccsc5)N5CCCC5)cc34)cc2)CC1` (stereo not shown) [Example A7, N-(3-(4-((1-methylpiperidin-4-yl)oxy)phenyl)-1H-indazol-5-yl)-2-(pyrrolidin-1-yl)-2-(thiophen-3-yl)acetamide]: on human PLK4, the IC50 is less than 50 nM.

With `O=C(Nc1ccc2[nH]nc(-c3ccc(NC4CCOCC4)cc3)c2c1)C(c1ccsc1)N1CCCC1` (stereo not shown) [Example A71, 2-(pyrrolidin-1-yl)-N-(3-(4-((tetrahydro-2H-pyran-4-yl)amino)phenyl)-1H-indazol-5-yl)-2-(thiophen-3-yl)acetamide], at human PLK4, the IC50 was less than 50 nM. For the same compound, in assay [1], the GI50 was less than 100 nM.

In the case of `O=C(NC(c1ccsc1)C1CC1)c1ccc2[nH]nc(-c3ccc(N4CCC(O)CC4)cc3)c2c1` (stereo not shown) [Example A101, N-(cyclopropyl(thiophen-3-yl)methyl)-3-(4-(4-hydroxypiperidin-1-yl)phenyl)-1H-indazole-5-carboxamide], at human PLK4, the IC50 was less than 50 nM.

Regarding `COCCN1CCC(Oc2ccc(-c3n[nH]c4ccc(C(=O)N[C@H](C)c5ccccc5F)cc34)cc2)CC1` [Example A129, (R)-N-(1-(2-fluorophenyl)ethyl)-3-(4-((1-(2-methoxyethyl)piperidin-4-yl)oxy)phenyl)-1H-indazole-5-carboxamide], at human PLK4, the IC50 is less than 50 nM. For the same compound, the GI50 in assay [2] and in assay [1] was 100 to 500 nM throughout.

With `O=C(Nc1ccc2[nH]nc(-c3ccc(OC4CCN(CCF)CC4)cc3)c2c1)C(c1ccsc1)N1CCCC1` (stereo not shown) [Example A102, N-(3-(4-((1-(2-fluoroethyl)piperidin-4-yl)oxy)phenyl)-1H-indazol-5-yl)-2-(pyrrolidin-1-yl)-2-(thiophen-3-yl)acetamide], the IC50 at human PLK4 was less than 50 nM. Further, the GI50 in assay [2] and in assay [1] was less than 100 nM each time.

As for `O=C(Nc1ccc2[nH]nc(-c3ccc(N4CCOCC4)c(F)c3)c2c1)C(c1ccsc1)N1CCCC1` (stereo not shown) [Example A60, N-(3-(3-fluoro-4-morpholinophenyl)-1H-indazol-5-yl)-2-(pyrrolidin-1-yl)-2-(thiophen-3-yl)acetamide], the concentration for half-maximal inhibition (IC50) at human PLK4 is less than 50 nM. Further, the GI50 in assay [1] fell in the range of 100 to 500 nM.

As for `CCC(NC(=O)c1ccc2[nH]nc(-c3ccc(OC4CCN(C)CC4)cc3)c2c1)C1CCCCC1` (stereo not shown) [Example A69, N-(1-cyclohexylpropyl)-3-(4-((1-methylpiperidin-4-yl)oxy)phenyl)-1H-indazole-5-carboxamide], on human PLK4, the IC50 is less than 50 nM. Further, the 50% growth inhibitory concentration (GI50) in assay [1] lay in the range of 100 to 500 nM.

For `CC(C)C[C@H](NC(=O)c1ccc2[nH]nc(-c3ccc(N4C5COCC4CC(O)C5)cc3)c2c1)c1ccccn1` (stereo partly drawn) [Example A306, 3-(4-((1R,5S,7R)-7-hydroxy-3-oxa-9-azabicyclo[3.3.1]nonan-9-yl)phenyl)-N-((S)-3-methyl-1-(pyridin-2-yl)butyl)-1H-indazole-5-carboxamide], the IC50 at human PLK4 is less than 50 nM.
